The nature of this data set: Mouse PK studies after oral and IV dosing. The conditions noted are these: for F: PO 3 mg/kg vs IV 1 mg/kg; for AUC(0-t) / clearance / half-life / Vd / Cmax / Tmax: in vivo; for clearance: read-out: IV Cl (converted); for Vd: read-out: IV VSS. The format is in vivo. Here is the method: The pharmacokinetics of representative Compounds of the Disclosure were determined after oral and IV dosing at the concentrations indicated in mouse (Table 7). […] The vehicles used in these studies are either (i) 10% PEG400+90% PBS (adjusted to pH to 8.0 by 0.5 N NaOH); or (ii) 100% PEG200.

The mark [1] stands for this setting: iv, 1 mg/kg, IV, dose 1 mg/kg, read-out: IV AUC(0 − t).
Setting [2] is: iv, 1 mg/kg, IV, dose 1 mg/kg, read-out: IV T1/2 (converted).
[3] abbreviates: po, 3 mg/kg, PO, dose 3 mg/kg, read-out: PO AUC(0 − t).
[4] abbreviates: po, 3 mg/kg, PO, dose 3 mg/kg, read-out: PO T1/2 (converted).

Where two headings read alike, the source gives them in different places.

As a reminder, the AUC(0-t) is the area under the concentration-time curve up to a stated or last time point. As a reminder, the Cmax is the peak of the concentration-time curve. As a reminder, the Tmax is the time at which the peak concentration occurs. Turning to `C[C@H]1CC2(CCN(c3ccc(C(=O)N4CCN(C5CCN(c6ccc7c(c6)C(=O)N(C6CCC(=O)NC6=O)C7=O)CC5)CC4)cc3)CC2)CN1c1ccc(C#N)c(Cl)c1` (stereo partly drawn) [Cpd. No. 302], the F worked out at 27%. Moreover, the AUC(0-t) under setting [1] amounted to 5030 ng·h/mL. Also, for the setting “iv, 1 mg/kg, IV, dose 1 mg/kg”, the clearance was 3.17 mL/min/kg and the Vd turned out to be 1.45 L/kg. The half-life under setting [2] is 7 h. Besides, under “po, 3 mg/kg”, the Cmax amounted to 526 ng/mL and the Tmax worked out at 1.3 h. Also, under setting [3], the AUC(0-t) was 4050 ng·h/mL. Further, under setting [4], the half-life is 7.3 h.

For the compound `C[C@H]1CC2(CCN(c3ccc(C(=O)N4CCN(C5CN(c6cc7c(cc6F)C(=O)N(C6CCC(=O)NC6=O)C7=O)C5)CC4)cc3)CC2)CN1c1ccc(C#N)c(Cl)c1` (stereo partly drawn) [Cpd. No. 344, 2-chloro-4-((3S)-8-(4-(4-(1-(2-(2,6-dioxopiperidin-3-yl)-6-fluoro-1,3-dioxoisoindolin-5-yl)azetidin-3-yl)piperazine-1-carbonyl)phenyl)-3-methyl-2,8-diazaspiro[4.5]decan-2-yl)benzonitrile], the F was determined as 64%. Further, the AUC(0-t) under setting [1] was 4930 ng·h/mL. Also, for the setting “iv, 1 mg/kg, IV, dose 1 mg/kg”, the clearance was 3.17 mL/min/kg and the Vd turned out to be 1.58 L/kg. Under setting [2], the half-life was 6.9 h. Besides, where the note is “po, 3 mg/kg”, the Cmax is 841 ng/mL and the Tmax is 4 h. Besides, the AUC(0-t) under setting [3] worked out at 9470 ng·h/mL. Further, the half-life under setting [4] was 6 h.

The compound `C[C@H]1CC2(CCN(c3ccc(C(=O)N4CCN(C5CN(c6ccc7c(c6)CN(C6CCC(=O)NC6=O)C7=O)C5)CC4)cc3)CC2)CN1c1ccc(C#N)c(Cl)c1` (stereo partly drawn) [Cpd. No. 346, 2-chloro-4-((3S)-8-(4-(4-(1-(2-(2,6-dioxopiperidin-3-yl)-1-oxoisoindolin-5-yl)azetidin-3-yl)piperazine-1-carbonyl)phenyl)-3-methyl-2,8-diazaspiro[4.5]decan-2-yl)benzonitrile] registered an F of 32%. Moreover, the area under the curve AUC(0-t) under setting [1] is 3030 ng·h/mL. Under “iv, 1 mg/kg, IV, dose 1 mg/kg”, the clearance is 5 mL/min/kg and the Vd is 2.7 L/kg. Also, the half-life under setting [2] is 8.8 h. Also, for the setting “po, 3 mg/kg”, the Cmax came to 260 ng/mL and the Tmax was found to be 3.3 h. For the same compound, the AUC(0-t) under setting [3] came out at 2950 ng·h/mL. Under setting [4], the half-life is 7.2 h.

In turn, `C[C@H]1CC2(CCN(c3ccc(C(=O)N4CCN(C5CN(c6ccc7c(c6)C(=O)N(C6CCC(=O)NC6=O)C7)C5)CC4)cc3)CC2)CN1c1ccc(C#N)c(Cl)c1` (stereo partly drawn) [Cpd. No. 348, 2-chloro-4-((3S)-8-(4-(4-(1-(2-(2,6-dioxopiperidin-3-yl)-3-oxoisoindolin-5-yl)azetidin-3-yl)piperazine-1-carbonyl)phenyl)-3-methyl-2,8-diazaspiro[4.5]decan-2-yl)benzonitrile] showed an F of 12%. Also, under setting [1], the AUC(0-t) stood at 10100 ng·h/mL. Where the note is “iv, 1 mg/kg, IV, dose 1 mg/kg”, the clearance is 1.67 mL/min/kg and the Vd is 0.9 L/kg. Moreover, under setting [2], the half-life is 7.5 h. Moreover, for the setting “po, 3 mg/kg”, the Cmax was 334 ng/mL and the Tmax turned out to be 2 h. The AUC(0-t) under setting [3] worked out at 3740 ng·h/mL. Further, the half-life under setting [4] is 7.6 h.

Take `C[C@H]1CC2(CCN(c3ccc(C(=O)N4CCC(CN5CCN(c6ccc7c(c6)C(=O)N(C6CCC(=O)NC6=O)C7=O)CC5)CC4)cc3)CC2)CN1c1ccc(C#N)c(Cl)c1` (stereo partly drawn) [Cpd. No. 442, 2-chloro-4-((3S)-8-(4-(4-((4-(2-(2,6-dioxopiperidin-3-yl)-1,3-dioxoisoindolin-5-yl)piperazin-1-yl)methyl)piperidine-1-carbonyl)phenyl)-3-methyl-2,8-diazaspiro[4.5]decan-2-yl)benzonitrile]: the F is listed as 42%. The AUC(0-t) under setting [1] is 5240 ng·h/mL. Further, where the note is “iv, 1 mg/kg, IV, dose 1 mg/kg”, the clearance is 2.83 mL/min/kg and the Vd worked out at 1.7 L/kg. Further, under setting [2], the half-life was 9.2 h. Also, under “po, 3 mg/kg”, the concentration peaked (Cmax) at 847 ng/mL and the Tmax worked out at 2.67 h. Further, the AUC(0-t) under setting [3] was 6570 ng·h/mL. Also, under setting [4], the half-life was 5.37 h.

Regarding `C[C@H]1CC2(CCN(c3ccc(C(=O)N4CCC(N5CCN(c6ccc7c(c6)C(=O)N(C6CCC(=O)NC6=O)C7=O)CC5)CC4)cc3)CC2)CN1c1ccc(C#N)c(Cl)c1` (stereo partly drawn) [Cpd. No. 443, 2-chloro-4-((3S)-8-(4-(4-(4-(2-(2,6-dioxopiperidin-3-yl)-1,3-dioxoisoindolin-5-yl)piperazin-1-yl)piperidine-1-carbonyl)phenyl)-3-methyl-2,8-diazaspiro[4.5]decan-2-yl)benzonitrile], the F is on record as 67%. For the same compound, the area under the curve AUC(0-t) under setting [1] was 8440 ng·h/mL. Moreover, under “iv, 1 mg/kg, IV, dose 1 mg/kg”, the clearance was 2 mL/min/kg and the Vd was determined as 1.02 L/kg. Besides, the half-life under setting [2] was 7.1 h. Under “po, 3 mg/kg”, the peak level (Cmax) was 1870 ng/mL and the Tmax came to 2 h. The AUC(0-t) under setting [3] was 15500 ng·h/mL. Also, under setting [4], the half-life was 5.38 h.

In turn, `C[C@H]1CC2(CCN(c3ccc(C(=O)N4CCC(CN5CCN(c6cc7c(cc6F)C(=O)N(C6CCC(=O)NC6=O)C7=O)CC5)CC4)cc3)CC2)CN1c1ccc(C#N)c(Cl)c1` (stereo partly drawn) [Cpd. No. 444, 2-chloro-4-((3S)-8-(4-(4-((4-(2-(2,6-dioxopiperidin-3-yl)-6-fluoro-1,3-dioxoisoindolin-5-yl)piperazin-1-yl)methyl)piperidine-1-carbonyl)phenyl)-3-methyl-2,8-diazaspiro[4.5]decan-2-yl)benzonitrile] came in with an F of 68%. Under setting [1], the AUC(0-t) was 7800 ng·h/mL. In addition, for the setting “iv, 1 mg/kg, IV, dose 1 mg/kg”, the clearance was 1.83 mL/min/kg and the Vd amounted to 1.2 L/kg. Under setting [2], the half-life was 8.3 h. Where the note is “po, 3 mg/kg”, the concentration peaked (Cmax) at 1250 ng/mL and the Tmax came to 4 h. Besides, the AUC(0-t) under setting [3] was found to be 16000 ng·h/mL. Besides, the half-life under setting [4] is 6.9 h.

Consider `C[C@H]1CC2(CCN(c3cnc(C(=O)N4CCC(CN5Cc6cc7c(cc6C5)C(=O)N(C5CCC(=O)NC5=O)C7=O)CC4)cn3)CC2)CN1c1ccc(C#N)c(Cl)c1` (stereo partly drawn) [Cpd. No. 495, 2-chloro-4-((3S)-8-(5-(4-((6-(2,6-dioxopiperidin-3-yl)-5,7-dioxo-3,5,6,7-tetrahydropyrrolo[3,4-f]isoindol-2(1H)-yl)methyl)piperidine-1-carbonyl)pyrazin-2-yl)-3-methyl-2,8-diazaspiro[4.5]decan-2-yl)benzonitrile], for which the F turned out to be 107%. Also, under setting [1], the AUC(0-t) was 950 ng·h/mL. Also, under “iv, 1 mg/kg, IV, dose 1 mg/kg”, the clearance was 16.2 mL/min/kg and the Vd was determined as 2.59 L/kg. Also, the half-life under setting [2] is 2.6 h. Further, for the setting “po, 3 mg/kg”, the Cmax came to 722 ng/mL and the Tmax was 0.8 h. Moreover, the AUC(0-t) under setting [3] is 3050 ng·h/mL. The half-life under setting [4] is 3.4 h.

`C[C@H]1CC2(CCN(c3ccc(C(=O)N4CCN(C5CCN(c6cc7c(cc6F)C(=O)N(C6CCC(=O)NC6=O)C7=O)CC5)CC4)cc3)CC2)CN1c1ccc(C#N)c(Cl)c1` (stereo partly drawn) [Cpd. No. 540] registered an F of 61%. The AUC(0-t) under setting [1] was 7990 ng·h/mL. In addition, under “iv, 1 mg/kg, IV, dose 1 mg/kg”, the clearance is 2 mL/min/kg and the Vd is 0.96 L/kg. Besides, under setting [2], the half-life was 7.3 h. Under “po, 3 mg/kg”, the highest level (Cmax) was 1130 ng/mL and the Tmax turned out to be 3.3 h. The AUC(0-t) under setting [3] was 14500 ng·h/mL. In addition, the half-life under setting [4] was 7.8 h.

The compound `C[C@H]1CC2(CCN(c3ccc(C(=O)N4CC[C@@H](CN5CCN(c6ccc7c(c6)C(=O)N(C6CCC(=O)NC6=O)C7=O)CC5)C4)cc3)CC2)CN1c1ccc(C#N)c(Cl)c1` (stereo partly drawn) [compound 448] yielded an F of 26%. Besides, the AUC(0-t) under setting [1] turned out to be 78 ng·h/mL. Moreover, under “iv, 1 mg/kg, IV, dose 1 mg/kg”, the clearance was 203 mL/min/kg and the Vd was found to be 25.3 L/kg. Also, under setting [2], the half-life is 2.74 h. For the setting “po, 3 mg/kg”, the concentration peaked (Cmax) at 16 ng/mL and the Tmax is 1.67 h. Besides, the AUC(0-t) under setting [3] amounted to 60 ng·h/mL. The half-life under setting [4] was 4.78 h.

The values above are taken from US20220380368A1, “SPIROCYCLIC ANDROGEN RECEPTOR PROTEIN DEGRADERS” (THE REGENTS OF THE UNIVERSITY OF MICHIGAN, priority 2019, published 2022).
